In publication PMC5450702 (Toxins, 2017):

How the values were obtained:
mice = assay: CFA-induced inflammation and thermal hyperalgesia; assay type: in vivo, CD-1 mice
Description: All experiments were approved by the Animal Care and Use Committee of the Branch of the IBCh RAS (Pushchino, Russia) protocol number No. 492/16. Adult male CD-1 mice (weight 20–30 g; obtained from the Animal Breeding Facility Branch of Shemyakin-Ovchinnikov Institute of Bioorganic Chemistry, Russian Academy of Sciences, Pushchino, Russia Federation) were housed at room temperature (23 ± 2 °C) and subjected to a 12 h light–dark cycle with food and water available ad libitum. […] The significance of the data was determined by Analysis of variance (ANOVA) followed by Turkey’s post-hoc test. Data are presented as mean ± SEM.
Paw inflammation and thermal hyperalgesia was induced using Complete Freund’s Adjuvant (CFA) suspended in an oil/saline (1:1) emulsion. The mice were injected with 20 µL of CFA emulsion into the plantar surface of the left hind-paw. The control mice were injected with 20 µL of saline. […] Paw withdrawal latency was recorded using a hot plate (53 °C) 30 min after peptide or saline administration. […] Percent inflammation was calculated according to the formula ((Postdose paw diameter − Naive paw diameter)/(Predose paw diameter − Naive paw diameter)) × 100.

TRPA1 = details: ref [53]; cited from earlier work
From the text: Most probably, this peptide can potentiate and defunctionalize the TRPA1 receptor on sensory neurons or desensitize neurons. […] In our study, defunctionalization of ...

[1] = test system: myocardial voltage gated Na^+ channel; parameters: method as in PMID 1686683; details: ref [41]; cited from earlier work
[2] = ref [45], cited from earlier work
Description: The capability of defensins to interact with microbial membranes is determined by the shape of the molecules, the ratio of polar to hydrophobic residues on the peptide surface, and the total positive charge given through basic amino acids rather than by their individual primary structures. Usually, increasing the overall positive charge will increase the antimicrobial activity of AMPs due to the selective action of AMPs on negatively charged bacterial membranes. Indeed, the AMP cryptidin-4 (Crp4, charge +8) more effectively associates with negatively charged biological membranes than ne ...

[3] = ref [11]; cited from earlier work
sodium channels = details: ref [11]; cited from earlier work

CCC(=N\O)/C(C)=C/c1ccc(F)cc1 [A-967079]
effect of TRPA1 antagonist on Ueq 12-1 action, CFA-induced inflammation (mice; A-967079 20 mg/kg p.o. 1 h before Ueq 12-1 0.2 mg/kg i.v.): completely blocked the effect of peptide Ueq 12-1
effect of TRPA1 antagonist on Ueq 12-1 action, thermal hyperalgesia (mice; A-967079 20 mg/kg p.o., Ueq 12-1 0.2 mg/kg i.v., n = 7–8): completely blocked the effect of peptide Ueq 12-1

C=C1C(=O)O[C@H]2[C@H]1CC/C(C)=C/CC[C@@]1(C)O[C@@H]21 [parthenolide]
TRPA1 activity (TRPA1): partial agonist of TRPA1

Anthopleurin-A: 49-residue polypeptide from Anthopleura xanthogrammica
effect on myocardial voltage gated Na^+ channel [1]: delayed inactivation

cryptidin-4 (Crp4: mouse alpha-defensin 4 antimicrobial peptide (LRGLLCYCRKGHCKRGERVRGTCGIRFLYCCPRR; UniProt P28311 59-92, looked up)
charge [2]: +8
association with membranes ([2]; versus neutral membranes): more effectively associates with negatively charged biological membranes than neutral membranes

neurotoxin 2 (ATX-II)
antimicrobial properties [3]: have antimicrobial properties
effect on sodium channels gating (sodium channels): affect sodium channels gating
